Several values for one entry are separate records, joined by “and”; a condition that tells them apart may be missing. Identical values can stand only once.
Key:
Format in all cases: in vivo, human
[1] = Metabolite profiling in plasma (LC-MS-TopCount); settings: for Amount detected in plasma: Hamilton AUC0-24h pooled plasma
Protocol: Plasma samples from six patients were pooled using two methods: (1) A Hamilton pool plasma (0–24 h) for metabolite profile determination was prepared by combining plasma aliquots of a volume proportional to the time interval used for calculating the AUC (AUC0-24h pool) for each patient and (2) four time-point pooling samples were obtained by equal volume pool at 1, 4, 8, and 24 h across six patients. In addition, plasma samples at 1, 8, and 24 h were selected from three patients (Patients 03, 08, and 09) for metabolite profiles analysis to check the individual differences between patients. Samples collected after 24 h post dose were not included in the pooling due to the low radioactivity at later time points. All plasma samples (pooled and from individuals) were extracted at least two times with acetonitrile. All supernatants were evaporated to dryness, and the dried residues were reconstituted in 20% acetonitrile in water containing 0.1% TFA. The sample recovery was obtained by comparing the radioactivity concentrations before and after extraction, and the mean recovery was about 70%.
Aliquots of the supernatants were injected into the HPLC, and the HPLC elutes were collected as fractions at intervals of 30 sec per well into LumaPlate-96 DeepWell microplates (PerkinElmer). Due to the low radioactivity in each plasma sample, metabolite profiles were obtained by TopCount (PerkinElmer) analysis of HPLC elutes. The fractions were dried at room temperature, and then analyzed by a TopCount NXT radiometric microplate reader (PerkinElmer) to obtain metabolite profiles. The supernatants of extracts were also analyzed using an LC-MS method to identify metabolites.
(§1) Metabolite profiling and identification were performed on an LC system (Agilent) coupled to an LTQ Orbitrap mass spectrometer (Thermo Electron, Waltham, MA, USA) in combination with offline TopCount (LC-MS-TopCount) or online Radiomatic 625TR (LC-MS-Radiomatic; PerkinElmer). Proposed structures of the metabolites were based on accurate mass (<5 ppm) and comparison of mass spectral data of parent compound rucaparib and metabolite standard M324. The Radiomatic 625TR flow detector, equipped with a 200 μL flow cell, was operated using scintillation cocktail (Ultima-Flo M) delivered at a flow rate of 1 mL/min. Chromatography was done using a Phenomenex (Torrance, CA, USA) Luna Phenyl-Hexyl column (250 × 2 mm, 5 μm, 100 Å) at ambient temperature during the sample analysis. The mobile phase was (A) 0.05% TFA in water and (B) 0.05% TFA in acetonitrile, with a 0.2 mL/min flow rate. The gradient was as follows: 5% B over 2.1 min, to 20% B in 1.0 min, to 35% B in 16.9 min, isocratic at 35% B for 5 min, to 95% B over 5 min, and reduced to 5% B over 1 min, with total run time 45 min.
(§2) The abundance of unchanged rucaparib and metabolites identified in plasma, urine, and feces was determined as a percentage of the TRA in the analyzed samples. Percentage of the administered dose of rucaparib and metabolites was calculated in urine and feces (formula A). The concentration of rucaparib and its metabolites in plasma (ng Eq h/mL) was calculated based on the specific activity, TRA, and percentage of peaks (formula B). The AUC0-24h value of rucaparib and its major metabolite M324 in plasma was calculated using both Hamilton method (formula C) and linear trapezoidal method (formula D). • (A) %Doseofmetabolite=TRAinurineorfeces(dpm)÷TRAinadministereddose(dpm)×%metabolitesinmatrix • (B) Metaboliteconcentrationsinplasma(ngEq/mL)=TRAinplasma(dpm/mL)specificactivity(ngEq/dpm)×%metabolitesinthematrix • (C) Hamiltonmethod:AUC0−24h(ngEqh/mL)=concentrationinHamilton(AUC0−24h)pooledplasma(ngEq/mL)×24(h) • (D) Lineartrapezoidalmethod:AUC0−24h(ngEqh/mL)=C1h/2×1h+C1h+C4h/2×(4h−1h)+C4h+C8h/2×(8h−4h)+C8h+C24h/2×(24h−8h)

[2] = Metabolite profiling in pooled urine (LC-MS-Radiomatic)
Protocol: For each patient, urine samples from different collection intervals were pooled in proportion to their sample weight in order to obtain a pooled sample covering 90% of the TRA in urine. Pooled urine samples were lyophilized and then extracted at least twice with acetonitrile. The obtained supernatant was evaporated to dryness, and the dried residues were reconstituted in 20% acetonitrile in water containing 0.1% TFA. An aliquot of the supernatant was analyzed for TRA to determine extraction efficiency, and the mean recovery was ≈70%. Aliquots of the supernatants were injected into the HPLC coupled to UV and radioactive detectors to obtain metabolite profiles. The samples were also analyzed using LC-MS for metabolite identification.
as §1, §2

[3] = Metabolite profiling in pooled feces (LC-MS-Radiomatic); settings: for Amount detected in feces: pooled fecal homogenates, mainly observed by MS only
Protocol: For each patient, homogenized feces samples from different collection intervals were pooled in proportion to their sample weight in order to obtain a pooled sample covering 90% of the TRA recovered in feces. Aliquots of the pooled fecal samples were extracted at least twice with acetonitrile. The obtained supernatant was evaporated. The dried residues were reconstituted in 40% DMSO in water to obtain maximum recovery. An aliquot of the supernatant was analyzed for TRA to determine extraction efficiency, and the mean recovery was ≈75%. Aliquots of the supernatants were injected into the HPLC coupled to UV and radioactive detectors to obtain metabolite profiles. The sample supernatants were also analyzed using LC-MS to identify metabolites.
as §1, §2

[4] = Metabolite identification by LC-MS/MS in plasma, urine and feces; settings: F feces, P plasma, U urine
Protocol: as §1
The LTQ Orbitrap mass spectrometer was equipped with an electrospray ionization interface and operated in positive ionization mode for metabolite profiling and identification. Mass spectra were acquired in full scan (MS) (m/z 150–1500) and data-dependent scan modes. Mass spectrometer parameter settings were: spray voltage, +5.0 kV; capillary temperature, 350 °C; sheath gas, 80 (arbitrary unit); auxiliary gas, 30 (arbitrary unit); activation Q, 0.25; activation time, 30 msec; resolution, 7500; and collision energy, 35 eV.
The structures of the metabolites were identified by LC-MS/MS based on comparisons of mass spectral fragmentation patterns with those produced by the parent compound. Further confirmation of the identities of the metabolites was based on the elemental composition determined from accurate mass analyses using an Orbitrap high-resolution mass spectrometer.
The structures of the major metabolites found in plasma, urine, and feces were also confirmed by comparisons with the synthetic reference standard M324.

[5] = 0-24 h pooled plasma, N = 6, mean ± SD

O=CNCc1ccc(-c2[nH]c3cc(F)cc4c3c2CCNC4=O)cc1 [M337b]
Amount detected in plasma [1]: small or trace amounts
Amount observed in urine ([2]; pooled urine): small to trace amounts
Amount detected in feces [3]: trace amounts
Matrix in which identified [4]: P, U, F

NCc1ccc(-c2[nH]c3cc(F)cc4c3c2CCNC4=O)cc1 [M309]
Amount detected in plasma [1]: small or trace amounts
Amount observed in urine ([2]; pooled urine): small to trace amounts
Amount detected in feces [3]: trace amounts
Matrix in which identified [4]: P, U, F

NC(=O)c1ccc(-c2[nH]c3cc(F)cc4c3c2CCNC4=O)cc1 [M323]
Amount detected in plasma [1]: small or trace amounts
Amount observed in urine ([2]; pooled urine): small to trace amounts
Amount detected in feces [3]: trace amounts
Matrix in which identified [4]: P, U, F

O=C(O)c1ccc(-c2[nH]c3cc(F)cc4c3c2CCNC4=O)cc1 [M324]
% Peak (of plasma radioactivity), Hamilton (AUC0-24h) pooled plasma [1, 5]: 18.6 ± 10.8%
Concentration, Hamilton (AUC0-24h) pooled plasma [1, 5]: 94.0 ± 62.7 ng Eq/mL
M324 as percentage of unchanged rucaparib exposure in 24-h pooled plasma ([1]; Hamilton 0-24 h pooled plasma): 30.3%
% Radioactive peaks in individual plasma, Patient 03, 1 h ([1]; Patient 03, 1 h): 15.4%
% Radioactive peaks in individual plasma, Patient 03, 8 h ([1]; Patient 03, 8 h): 33.3%
% Radioactive peaks in individual plasma, Patient 03, 24 h ([1]; Patient 03, 24 h): 63.9%
% Radioactive peaks in individual plasma, Patient 08, 1 h ([1]; Patient 08, 1 h): 7.94%
% Radioactive peaks in individual plasma, Patient 08, 8 h ([1]; Patient 08, 8 h): 20%
% Radioactive peaks in individual plasma, Patient 08, 24 h ([1]; Patient 08, 24 h): 61.5%
% Radioactive peaks in individual plasma, Patient 09, 1 h ([1]; Patient 09, 1 h): 15.4%
% Radioactive peaks in individual plasma, Patient 09, 8 h ([1]; Patient 09, 8 h): 17.9%
% Radioactive peaks in individual plasma, Patient 09, 24 h ([1]; Patient 09, 24 h): 36.2%
% Radioactive peaks in individual plasma, Mean ± SD, 1 h ([1]; Patients 03, 08, 09, 1 h): 12.9 ± 4.31%
% Radioactive peaks in individual plasma, Mean ± SD, 8 h ([1]; Patients 03, 08, 09, 8 h): 23.7 ± 8.35%
% Radioactive peaks in individual plasma, Mean ± SD, 24 h ([1]; Patients 03, 08, 09, 24 h): 53.9 ± 15.3%
AUC0-24h, Hamilton (AUC0-24h) pooled plasma ([1]; concentration in 0-24-h pooled sample × 24 h): 2260 ng Eq h/mL
concentration at 1 h ([1]; human, plasma, oral, 600 mg, single pooled sample from all six patients, 1 h, read-out: Mean concentration, time point pooled plasma, 1 h): 31.1 ng/mL
concentration at 4 h ([1]; human, plasma, oral, 600 mg, single pooled sample from all six patients, 4 h, read-out: Mean concentration, time point pooled plasma, 4 h): 265 ng/mL
concentration at 8 h ([1]; human, plasma, oral, 600 mg, single pooled sample from all six patients, 8 h, read-out: Mean concentration, time point pooled plasma, 8 h): 105 ng/mL
concentration at 24 h ([1]; human, plasma, oral, 600 mg, single pooled sample from all six patients, 24 h, read-out: Mean concentration, time point pooled plasma, 24 h): 239 ng/mL
Mean AUC0-24h, time point pooled plasma ([1]; trapezoidal method from 1, 4, 8, 24 h pools): 3960 ng Eq h/mL
% of dose in pooled urine, Patient 01 ([2]; Patient 01): 6.17 % dose
% of dose in pooled urine, Patient 03 ([2]; Patient 03): 7.24 % dose
% of dose in pooled urine, Patient 05 ([2]; Patient 05): 7.22 % dose
% of dose in pooled urine, Patient 06 ([2]; Patient 06): 8.54 % dose
% of dose in pooled urine, Patient 08 ([2]; Patient 08): 6 % dose
% of dose in pooled urine, Patient 09 ([2]; Patient 09): 10.3 % dose
% Peak (of TRA) in urine ([2]; pooled urine covering 90% of urine radioactivity, N = 6, mean ± SD): 50.0 ± 15.5%
% Dose in urine ([2]; pooled urine, % of administered dose, N = 6, mean ± SD): 7.58 ± 1.61%
% of dose in pooled fecal homogenate, Patient 01 ([3]; Patient 01): 6.39 % dose
% of dose in pooled fecal homogenate, Patient 03 ([3]; Patient 03): 7.82 % dose
% of dose in pooled fecal homogenate, Patient 05 ([3]; Patient 05): 3.33 % dose
% of dose in pooled fecal homogenate, Patient 06 ([3]; Patient 06): 2.22 % dose
% of dose in pooled fecal homogenate, Patient 08 ([3]; Patient 08): 0.00 % dose
% of dose in pooled fecal homogenate, Patient 09 ([3]; Patient 09): 0.00 % dose
% Peak (of TRA) in feces ([3]; pooled fecal homogenate covering >90% of fecal excretion, N = 6, mean ± SD): 5.07 ± 4.95%
% Dose in feces ([3]; pooled fecal homogenate, % of administered dose, N = 6, mean ± SD): 3.3% and 3.29 ± 3.25%
Matrix in which identified [4]: P, U, F

— publication PMC7211193, “Evaluation of absorption, distribution, metabolism, and excretion of [^14C]-rucaparib, a poly(ADP-ribose) polymerase inhibitor, in patients with advanced solid tumors” (Investigational New Drugs, 2019)
